Laboratory results from US7915402B2, “Antioxidant inflammation modulators: oleanolic acid derivatives with saturation in the C-ring” (Reata Pharmaceuticals, Inc., priority 2008, dated 2011).
Converted amounts (≈) assume the structure as drawn. Where two headings read alike, the source gives them in different places. Marks after values point to notes of the source that are not given here.

Legend:
[1] = Aqueous solubility determination (Multiscreen solubility filter plate, UV/vis); format: physicochemical; conditions: universal aqueous buffer, pH 7.4, aqueous buffer, kinetic from dmso stock, universal aqueous buffer pH 7.4, 90 min, room temperature
Protocol: Aqueous Solubility Determination. The following procedure was used to obtain the aqueous solubility results summarized in Example 8. Step 1. Determination of optimal UV/vis wavelengths and generation of standard curves for a compound of interest: • (1) For eight standard calibration curves (one plate), prepare 34 mL of 50:50 (v:v) universal buffer:acetonitrile in a 50 mL tube. • (2) Using a multichannel pipet, dispense (in μL) the buffer:acetonitrile in a deep well plate as follows:
• (6) Cover plate with lid and shake (200-300 rpm) at room temperature for 20 minutes. • (7) Mix all wells by pipetting up and down 10 times. • (8) Transfer 120 μL from each well to a UV transparent plate. Cover and shake for 3-5 minutes. Remove any bubbles in the wells using a pipet. • (9) Read from 220 nm to 500 nm at 10 nm increments on a spectrophotometer (e.g., SpectraMax®).
Step 2. Compound Solubility Testing Procedures Using the Millipore™ Multiscreen® Solubility Filter Plate.
Universal Aqueous Buffer: • (a) To prepare 500 mL of universal buffer, add the following: 250 mL Nanopure water; 1.36 mL (45 mM) ethanolamine; 3.08 g (45 mM) potassium dihydrogen phosphate; 2.21 g (45 mM) potassium acetate; thoroughly mix. • (b) Adjust pH to 7.4 with HCl and q.s. to 500 mL with 0.15 M KCl. • (c) Filter to remove particulates and reduce bacterial growth. • (d) Store at 4° C. in the dark.
Solubility Protocol: • (a) Add 285 μL of Universal Aqueous Buffer to desired wells of the Millipore™ Multiscreen® Solubility filter plate. • (b) Add 15 μL of 10 mM compound in DMSO to the appropriate wells. Add 15 μL of 100% DMSO only to 6 wells of the filter plate for blanks. • (c) Using a multichannel pipet, mix wells by pipetting up and down 10 times. Be careful not to touch the filters in the plate with the tips. • (d) Cover and gently shake (200-300 rpm) filter plate for 90 minutes at room temperature. • (e) Vacuum filter the aqueous solution from the Multiscreen® solubility filter plate into a polypropylene V-bottom plate. • (f) Transfer 60 μL of filtrate to a UV transparent plate (Greiner® UV-Star Analysis Plate). • (g) Add 60 μL of acetonitrile to each well and mix by pipetting up and down 10 times. • (h) Cover and gently shake for 3-5 minutes. Remove any bubbles with a pipet. • (i) Measure the absorbance of each well in the plate on the spectrophotometer (UV/vis) at the desired wavelength. For compounds in a plate with different absorbance peaks, set the spectrophotometer to read a spectrum (e.g., from 220 nm to 460 nm). • (j) Identify concentration using measured absorbance for each compound and the predetermined standard curve (see Step 1).

HO-1 = assay: Nrf2 target gene induction, HO-1 mRNA (qPCR); format: cell-based, human; conditions: MDA-MB-435 cells
Protocol: (§1) FIGS. 17-20. Induction of HO-1. MDA-MB-435 human melanoma cells were treated with vehicle (DMSO) or the indicated compounds and concentrations for 16 hours. HO-1 mRNA levels were quantified using qPCR and were normalized relative to a DMSO-treated sample run in parallel. Values are averages of duplicate wells.
as §1, with “FIG. 21.” for “FIGS. 17-20.”, “HO-1, TrxR1 and γ-GCS.” for “HO-1.”, “HO-1, thioredoxin reductase-1 (TrxR1), and γ-glutamylcysteine synthetase (γ-GCS)” for “HO-1”
as §1, with “Nrf2 target gene induction.” for “FIGS. 17-20. Induction of HO-1.”, “HO-1, thioredoxin reductase-1 (TrxR1), γ-glutamylcysteine synthetase (γ-GCS), and ferritin heavy chain” for “HO-1”, “wells. Primer sequences are as follows.” for “wells.”

NQO1 = assay: Nrf2 target gene induction, NQO1; format: cell-based, human; conditions: MDA-MB-435 cells, 250 nM; fold induction above DMSO control
RAW264.7 macrophages = assay: Cell viability, WST-1 reagent; format: cell-based, mouse; conditions: RAW264.7 (20 ng/ml IFNγ)
Protocol: (§2) FIGS. 1-8 and 32-34. Inhibition of NO Production. RAW264.7 macrophages were pre-treated with DMSO or drugs at various concentrations (nM) for 2 hours, then treated with 20 ng/ml IFNγ for 24 hours. NO concentration in media was determined using a Griess reagent system; cell viability was determined using WST-1 reagent.
(§3) Nitric Oxide production and cell viability. RAW264.7 macrophages were pre-treated with DMSO or drugs for 2 hours, then treated with recombinant mouse IFNγ (Sigma) for 24 hours. NO concentration in media was determined using the Griess reagent system (Promega). Cell viability was determined using WST-1 reagent (Roche).

[2] = system: IFNγ-induced NO production in RAW264.7 macrophages; assay: Suppression of IFNγ-induced NO production (Griess reagent); format: cell-based, mouse; conditions: RAW264.7, 20 ng/ml IFNγ 24 h, 2 h pre-treatment
Protocol: as §2, §3

[3] = system: γ-glutamylcysteine synthetase (γ-GCS); assay: Nrf2 target gene induction, γ-GCS mRNA (qPCR); format: cell-based, human; conditions: MDA-MB-435 cells
Protocol: as §1, with “FIG. 21.” for “FIGS. 17-20.”, “HO-1, TrxR1 and γ-GCS.” for “HO-1.”, “HO-1, thioredoxin reductase-1 (TrxR1), and γ-glutamylcysteine synthetase (γ-GCS)” for “HO-1”
as §1, with “FIG. 23.” for “FIGS. 17-20.”, “γ-GCS.” for “HO-1.”, “γ-glutamylcysteine synthetase (γ-GCS)” for “HO-1”
as §1, with “Nrf2 target gene induction.” for “FIGS. 17-20. Induction of HO-1.”, “HO-1, thioredoxin reductase-1 (TrxR1), γ-glutamylcysteine synthetase (γ-GCS), and ferritin heavy chain” for “HO-1”, “wells. Primer sequences are as follows.” for “wells.”

[4] = Triterpenoid levels in mouse brain after feeding in diet (LC/MS); format: in vivo; conditions: CD-1 mice, 200 or 400 mg/kg diet for 3.5 days
Protocol: CD-1 mice were fed either 200 or 400 mg/kg diet of either TP-319 or TP-500 for 3.5 days, and TP levels in the brains of the mice were analyzed by LC/MS. The structures of TP-319 and TP-500 are shown below.

mice = conditions: sesame oil, N=4
[5] = system: thioredoxin reductase-1 (TrxR1); assay: Nrf2 target gene induction, TrxR1 mRNA (qPCR); format: cell-based, human; conditions: MDA-MB-435 cells, 400 nM; percent of induction observed for 402
Protocol: as §1, with “FIG. 21.” for “FIGS. 17-20.”, “HO-1, TrxR1 and γ-GCS.” for “HO-1.”, “HO-1, thioredoxin reductase-1 (TrxR1), and γ-glutamylcysteine synthetase (γ-GCS)” for “HO-1”
as §1, with “FIG. 22.” for “FIGS. 17-20.”, “TrxR1.” for “HO-1.”, “Thioredoxin reductase-1 (TrxR1)” for “HO-1”, “wells. Compounds 401, 402-19 and 402-53 are comparison compounds (see Example 1).” for “wells.”
as §1, with “Nrf2 target gene induction.” for “FIGS. 17-20. Induction of HO-1.”, “HO-1, thioredoxin reductase-1 (TrxR1), γ-glutamylcysteine synthetase (γ-GCS), and ferritin heavy chain” for “HO-1”, “wells. Primer sequences are as follows.” for “wells.”

[6] = 250 nM, fold induction above DMSO control
[7] = 400 nM, percent of induction observed for 402

| Compound | solubility at 90 min [1] [µM] | HO-1 induction (HO-1; [6]) [fold] | NQO1 induction (NQO1) [fold] | IC50 (RAW264.7 macrophages; Mus musculus) [nM] | IC50 ([2]; Mus musculus) [nM] | further results |
| --- | --- | --- | --- | --- | --- | --- |
| CC1(C)CC[C@]2([C@@H](O)CO)CC[C@]3(C)[C@H](C(=O)C[C@@H]4[C@@]5(C)C=C(C#N)C(=O)C(C)(C)[C@@H]5CC[C@]43C)[C@@H]2C1 [Compound 63221] | 8.78 (≈ 4.48 µg/mL) |  |  |  |  |  |
| CC1(C)CC[C@]2(CNC(=O)C(F)(F)F)CC[C@]3(C)[C@H](C(=O)C[C@@H]4[C@@]5(C)C=C(C#N)C(=O)C(C)(C)[C@@H]5CC[C@]43C)[C@@H]2C1 [Compound 63226] | 0.71 (≈ 0.408 µg/mL) |  |  |  |  |  |
| CC1(C)CC[C@]2(CN)CC[C@]3(C)[C@H](C(=O)C[C@@H]4[C@@]5(C)C=C(C#N)C(=O)C(C)(C)[C@@H]5CC[C@]43C)[C@@H]2C1 [Compound 63214] | 112 (≈ 53.7 µg/mL) |  |  |  |  |  |
| COC(=O)[C@]12CCC(C)(C)C[C@H]1[C@H]1[C@H](O)C[C@@H]3[C@@]4(C)C=C(C#N)C(=O)C(C)(C)[C@@H]4CC[C@@]3(C)[C@]1(C)CC2 [Compound 63207] |  | 1.2 | 1.6 |  |  | IC50 (RAW264.7 macrophages): > 200 nM; IC50 [2]: ~50 nM; γ-GCS induction [3, 6]: 3.1 fold |
| COC(=O)[C@]12CCC(C)(C)C[C@H]1[C@H]1[C@@H](O)C[C@@H]3[C@@]4(C)C=C(C#N)C(=O)C(C)(C)[C@@H]4CC[C@@]3(C)[C@]1(C)CC2 [Compound 63219] | 13.6 (≈ 6.92 µg/mL) |  |  | > 200 | ~150 |  |
| CC1(C)CC[C@]2(C#N)CC[C@]3(C)[C@H](C(=O)CC4[C@@]5(C)C=C(C#N)C(=O)C(C)(C)[C@@H]5CC[C@]43C)[C@@H]2C1 (stereo partly drawn) [Compound 63252, (4aR,6aR,6bR,8aS,12aS,12bR,14bR)-4,4,6a,6b,11,11,14b-heptamethyl-3,13-dioxo-3,4,4a,5,6,6a,6b,7,8,8a,9,10,11,12,12a,12b,13,14,14a,14b-icosahydropicene-2,8a-dicarbonitrile] |  | 5 | 3 | > 200 | ~5 |  |
| CC1(C)CC[C@]2(C(N)=O)CC[C@]3(C)[C@H](C(=O)CC4[C@@]5(C)C=C(C#N)C(=O)C(C)(C)[C@@H]5CC[C@]43C)[C@@H]2C1 (stereo partly drawn) [Compound 63205, (4aS,6aR,6bR,8aR,12aR,14aR,14bS)-11-cyano-2,2,6a,6b,9,9,12a-heptamethyl-10,14-dioxo-1,2,3,4,4a,5,6,6a,6b,7,8,8a,9,10,12a,12b,13,14,14a,14b-icosahydropicene-4a-carboxamide] |  | 1.7 | 1.7 | > 200 | ~25 | γ-GCS induction [3, 6]: 3.5 fold |
| CC1(C)CC[C@]2(CO)CC[C@]3(C)[C@H](C(=O)C[C@@H]4[C@@]5(C)C=C(C#N)C(=O)C(C)(C)[C@@H]5CC[C@]43C)[C@@H]2C1 [Compound 63202] | 1.89 (≈ 0.907 µg/mL) |  |  |  |  |  |
| CC1(C)CC[C@]2(C(=O)NCC(F)(F)F)CC[C@]3(C)[C@H](C(=O)C=C4[C@@]5(C)C=C(C#N)C(=O)C(C)(C)[C@@H]5CC[C@]43C)[C@@H]2C1 [TP-500] |  |  |  |  |  | level detected in mouse brain compared with CDDO-EA (TP-319) [4]: Higher Levels |
| COC(=O)[C@]12CCC(C)(C)C[C@H]1[C@H]1C(=O)C=C3[C@@]4(C)C=C(C#N)C(=O)C(C)(C)[C@@H]4CC[C@@]3(C)[C@]1(C)CC2 [Compound 402, reference compound] | 1.46 (≈ 0.738 µg/mL) |  |  |  |  |  |
| CC1(C)CC[C@]2(C(=O)O)CC[C@]3(C)[C@H](C(=O)CC4[C@@]5(C)C=C(C#N)C(=O)C(C)(C)[C@@H]5CC[C@]43C)[C@@H]2C1 (stereo partly drawn) [Compound 63196, (4aS,6aR,6bR,8aR,12aR,14aR,14bS)-11-cyano-2,2,6a,6b,9,9,12a-heptamethyl-10,14-dioxo-1,2,3,4,4a,5,6,6a,6b,7,8,8a,9,10,12a,12b,13,14,14a,14b-icosahydropicene-4a-carboxylic acid] |  |  |  | > 200 | ~75 | HO-1 induction (HO-1; [7]): 1%; Number of Deaths (mice; oral gavage QDx14, 10 mg/kg): 0; Number of Deaths (mice; oral gavage QDx14, 50 mg/kg): 1*; Number of Deaths (mice; oral gavage QDx14, 100 mg/kg): 0; Number of Deaths (mice; oral gavage QDx14, 250 mg/kg): 1; TrxR1 induction [5]: 48%; γ-GCS induction [3, 7]: 26% |
| CC1(C)CC[C@]2(CCO)CC[C@]3(C)[C@H](C(=O)C[C@@H]4[C@@]5(C)C=C(C#N)C(=O)C(C)(C)[C@@H]5CC[C@]43C)[C@@H]2C1 [Compound 63231] | 1.23 (≈ 0.607 µg/mL) |  |  |  |  |  |
| CC1(C)CC[C@]23CC[C@@]4(C)[C@]5(C)CC[C@H]6C(C)(C)C(=O)C(C#N)=C[C@]6(C)[C@H]5CC(=O)[C@@]4([C@@H]2C1)N(CC(F)(F)F)C3=O [Compound 63237] | 5.16 (≈ 2.96 µg/mL) | 3 | 2.3 | > 200 | ~80 | γ-GCS induction [3, 6]: 6.4 fold |
| CC1(C)CC[C@]2(C=O)CC[C@]3(C)[C@H](C(=O)CC4[C@@]5(C)C=C(C#N)C(=O)C(C)(C)[C@@H]5CC[C@]43C)[C@@H]2C1 (stereo partly drawn) [Compound 63206, (4aR,6aR,6bR,8aS,12aS,12bR,14bR)-8a-formyl-4,4,6a,6b,11,11,14b-heptamethyl-3,13-dioxo-3,4,4a,5,6,6a,6b,7,8,8a,9,10,11,12,12a,12b,13,14,14a,14b-icosahydropicene-2-carbonitrile] |  | 2.5 | 1.8 | > 200 | ~10 | γ-GCS induction [3, 6]: 4.5 fold |
| Cc1cc(CNC[C@]23CCC(C)(C)C[C@H]2[C@H]2C(=O)C[C@@H]4[C@@]5(C)C=C(C#N)C(=O)C(C)(C)[C@@H]5CC[C@@]4(C)[C@]2(C)CC3)no1 [Compound 63232] | 0.75 (≈ 0.43 µg/mL) |  |  |  |  |  |
